Results on 16 compounds are retold here after ChEMBL document CHEMBL1137164, “Antioxidative activities of novel diphenylalkyl piperazine derivatives with high affinities for the dopamine transporter” (Bioorg Med Chem Lett, 2004).

For this assay, the species on record is Canis familiaris. The assay is described as follows: inhibitory concentration against auto-oxidative lipid peroxidation in canine brain homogenate.
`CN(C)c1ccc(NCC(O)CN2CCN(CCCC(c3ccc(F)cc3)c3ccc(F)cc3)CC2)cc1` (stereo unspecified): 2.2 µM corresponded to half-maximal inhibition (IC50).

Take `Nc1ccc(NCC(O)CN2CCN(CCCC(c3ccc(F)cc3)c3ccc(F)cc3)CC2)cc1` (stereo unspecified): the half-maximal inhibitory concentration (IC50) turned out to be 2.7 µM.

In turn, `Oc1ccc(NCC(O)CN2CCN(CCCC(c3ccc(F)cc3)c3ccc(F)cc3)CC2)cc1` (stereo unspecified) displayed a half-inhibitory concentration (IC50) of 0.32 µM.

As for `CC(C)(C)c1cc(NCC(O)CN2CCN(CCCC(c3ccc(F)cc3)c3ccc(F)cc3)CC2)cc(C(C)(C)C)c1O` (stereo unspecified), half-maximal inhibition (IC50) was put at 2.8 µM.

`COc1cc(NCC(O)CN2CCN(CCCC(c3ccc(F)cc3)c3ccc(F)cc3)CC2)cc(OC)c1OC` (stereo unspecified) returned an IC50 of 1.4 µM.

The compound `OC(CNc1ccc(Cl)cc1)CN1CCN(CCCC(c2ccc(F)cc2)c2ccc(F)cc2)CC1` (stereo unspecified) yielded an IC50 of 8.5 µM.

For the compound `OC(CNc1ccc(Cl)c(Cl)c1)CN1CCN(CCCC(c2ccc(F)cc2)c2ccc(F)cc2)CC1` (stereo unspecified), half-maximal inhibition (IC50) required 23 µM.

Compound `OC(CNc1ccccc1)CN1CCN(CCCC(c2ccc(F)cc2)c2ccc(F)cc2)CC1` (stereo unspecified) came in with an IC50 of 6.5 µM.

The compound `O=[N+]([O-])c1ccc(NCC(O)CN2CCN(CCCC(c3ccc(F)cc3)c3ccc(F)cc3)CC2)cc1` (stereo unspecified) registered an IC50 of 182 µM.

The compound `OC(CNc1ccccc1)CN1CCN(CCCCC(c2ccc(F)cc2)c2ccc(F)cc2)CC1` (stereo unspecified) showed an IC50 of 8.3 µM.

As for `OC(CNc1ccccc1)CN1CCN(C(c2ccc(F)cc2)c2ccc(F)cc2)CC1` (stereo unspecified), inhibition was half-maximal at 6.9 µM (IC50).

In the case of `OC(CNc1ccccc1)CN1CCN(CCC(c2ccc(F)cc2)c2ccc(F)cc2)CC1` (stereo unspecified), the IC50 amounted to 11 µM.

In turn, `COc1ccc(NCC(O)CN2CCN(CCCC(c3ccc(F)cc3)c3ccc(F)cc3)CC2)cc1` (stereo unspecified) displayed an IC50 of 1.6 µM.

Take `OC(CNc1ccccc1)CN1CCN(CC(c2ccc(F)cc2)c2ccc(F)cc2)CC1` (stereo unspecified): the half-maximal inhibitory concentration (IC50) was 11 µM.

`Cc1ccc(NCC(O)CN2CCN(CCCC(c3ccc(F)cc3)c3ccc(F)cc3)CC2)cc1` (stereo unspecified) displayed an IC50 of 6.1 µM.

The compound `Cc1c(C)c2c(c(C)c1O)CC[C@@](C)(CCC[C@H](C)CCC[C@H](C)CCCC(C)C)O2` [ALPHA-TOCOPHEROL] returned an IC50 of 1.5 µM.
